From US20230045196A1, “METHODS OF CONTROLLING OR PREVENTING INFESTATION OF PEANUT PLANTS BY PHYTOPATHOGENIC MICROORGANISMS” (SYNGENTA CROP PROTECTION AG, priority 2019, published 2023)

System: Cercospora arachidicola
Experiment: Peanut field trial, in-furrow soil application at planting, leafspot disease severity
Format: in vivo, Cercospora arachidicola on peanut (Arachis hypogaea)
Details: 63 days after planting, peanut Ga 09b, COMPOUND 1 SC450 200 g AI/ha, Fluopyram SC500 250 g AI/ha
Protocol: A peanut field trial was carried out in […], Georgia, USA, to evaluate the efficacy of different compounds against the leafspot disease Cercospora arachidicola. Plot borders (peanuts) were planted in early May and left untreated until there was significant leafspot infection on the borders.
The peanuts were then planted in July and treatments applied in-furrow at the same day. The disease occurred mid of September and an assessment on disease severity (% infected area) was done 63 days after planting.
Pest Severity, 63 Days after Planting

## O=C(NCCc1ncc(C(F)(F)F)cc1Cl)c1ccccc1C(F)(F)F [Fluopyram]
  % efficacy based on pest severity: 52.64%
Listed as commercial standard compound 2
  % efficacy based on pest severity: 53%
% infected area
  Pest severity (%): 15,A %
